Data from patent publication US20150354006A1, “MARKERS FOR ACUTE LYMPHOBLASTIC LEUKEMIA” (Novartis AG, priority 2012, published 2015).

Legend:
[1] = tested on: NSD2; test: Western blot of NSD2 knockdown by inducible shRNA in ALL cell lines; format: cell-based, human; conditions: induced with doxycycline, FIG. 13
Method: To test the hypothesis that the NSD2 E1099K mutation is important in the pathogenesis of ALL cells, several shRNA knockdown experiments were done. In these experiments, NSD2 shRNA sequences were cloned into pLKO-Tet-On vectors with the H1 promoter or U6 promoter. shRNA lentivitus was generated as described above. Cell lines were infected and selected by puromycin. All tet inducible shRNA cell lines are cultured using tet system approved FBS (Clontech, Cat#: 631106, Mountain View, Calif.). NSD2 Tet-inducible cellular proliferation assay was set up as the following. Cultured cells were placed at 0.2 million cells/ml in 10 ml and split into two wells (5 ml/well) in a 6-well plate. Doxycycline (100 ng/ml final) was added to one well at assay initiation and every 2-3 days to induce NSD2 Tet-inducible shRNAs. On days 4 and 8 the assayed cells (with and without doxycycline) were counted for viability and cell concentration (10^6 cell/ml) with Vi-cell. Assayed cells were then reset to 0.2×10^6 cells/ml in 5 ml every 4 days to keep the cells proliferating in log-phase. On day 8, 1 million cells were collected from assayed cells for Western blot analysis. The shRNA sequences used in the experiments were the following, and are used with this nomenclature in FIG. 13. […]

[2] = tested on: SEM cells; test: NSD2 Tet-inducible cellular proliferation assay, SEM cells; format: cell-based; conditions: SEM cells (E1099K), shRNA induced vs U6-empty control, FIG. 14
Method: (§1) To test the hypothesis that the NSD2 E1099K mutation is important in the pathogenesis of ALL cells, several shRNA knockdown experiments were done. In these experiments, NSD2 shRNA sequences were cloned into pLKO-Tet-On vectors with the H1 promoter or U6 promoter. shRNA lentivitus was generated as described above. Cell lines were infected and selected by puromycin. All tet inducible shRNA cell lines are cultured using tet system approved FBS (Clontech, Cat#: 631106, Mountain View, Calif.). NSD2 Tet-inducible cellular proliferation assay was set up as the following. Cultured cells were placed at 0.2 million cells/ml in 10 ml and split into two wells (5 ml/well) in a 6-well plate. Doxycycline (100 ng/ml final) was added to one well at assay initiation and every 2-3 days to induce NSD2 Tet-inducible shRNAs. On days 4 and 8 the assayed cells (with and without doxycycline) were counted for viability and cell concentration (10^6 cell/ml) with Vi-cell. Assayed cells were then reset to 0.2×10^6 cells/ml in 5 ml every 4 days to keep the cells proliferating in log-phase. On day 8, 1 million cells were collected from assayed cells for Western blot analysis. The shRNA sequences used in the experiments were the following, and are used with this nomenclature in FIG. 13.
(§2) The shRNAs described above were then used in a cell proliferation assay. […]

[3] = tested on: H3K36me2 and H3K27me3 methylation; test: Western blot of histone H3 methylation status after shRNA knockdown in SEM cells; format: cell-based; conditions: NSD2 E1099K knocked down, FIG. 16
Method: NSD2 shRNA sequences were cloned into pLKO-Tet-On vectors with H1 promoter or U6 promoter. shRNA lentivitus was generated as described above. Cell lines were infected and selected by puromycin. All tet inducible shRNA cell lines are cultured using tet system approved FBS (Clontech, Cat#: 631106). The NSD2 Tet-inducible cellular proliferation assay was set up as follows. Cultured cells were placed at 0.2 million cells/ml in 10 ml and split into two wells (5 ml/well) in 6-well plate. Doxycycline (100 ng/ml final) was added to one well at assay initiation and every 2-3 days to induce NSD2 Tet-inducible shRNAs. On days 4 and 8 the assayed cells (with and without doxycycline) were counted for viability and cell concentration (10^6 cell/ml) with Vi-cell. Assayed cells were then reset to 0.2×10^6 cells/ml in 5 ml every 4 days to keep the cells proliferating in log-phase. On days 8, 1 million cells were collected from assayed cells for Western blot analysis. The shRNA sequences used in the experiments were the V17 (SEQ ID NO. 9) and 9A5 (SEQ ID NO. 10) as described in Example 11 above.
For example, this is clearly seen in SEM cells wherein NSD2 E1099K is knocked down with […]. The amount of NSD2 present is very low, as is H3K36me2 methylation.

[4] = tested on: JVM-3 line; test: NSD2 Tet-inducible cellular proliferation assay, JVM-3 cells; format: cell-based; conditions: JVM-3 line (no E1099K), shRNA induced vs U6-empty control, FIG. 14
Method: as §1, §2

[5] = tested on: KMS-11 cells; test: KMS11-luciferase intravenous multiple myeloma mouse model with doxycycline-inducible NSD2 shRNA; format: in vivo, SCID-beige mice
Method: Six- to eight-week-old female SCID-beige mice (Vital River, Beijing, China) were injected intravenously with 10^7 KMS-11 cells stably transduced with inducible NSD2 shRNA (sh4: 5′ ACATGCTCACTATAGACAA′3 (SEQ ID NO:8)) and tagged with luciferase. The injection of KMS11 cells was in 100 μl PBS with 50% Matrigel, with 8-10 mice per group/treatment. To induce the shRNA expression, mice were fed with water containing 5% sucrose and 0.2 mg/ml doxycycline. Images were taken weekly (with 200 μl/mouse D-luciferase intraperitoneal injection), and pathology such as paralysis was monitored.

Row | Substance | expression of NSD2 and MMSET1 [1] | reduction of cell proliferation [2] | H3K27me3 methylation [3] | amount of NSD2 and H3K36me2 methylation [3] | reduction of cell proliferation [4] | tumor growth ([5]; KMS11-luciferase with inducible NSD2 shRNA, induction with doxycycline for 29 days, FIG. 3A) | luciferase activity of tumors ([5]; time course with vs without doxycycline induction, FIG. 3B)
1 | 9A5 shRNA: NSD2 shRNA 5' GAATAAGCCTTACGGGAAA 3' (SEQ ID NO. 10), targets NSD2 isoforms containing the SET domain | capable of reducing expression of NSD2 and MMSET1 | about 60% | robust H3K27me3 methylation | very low | about 15% |  | 
2 | sh4: inducible NSD2 shRNA, 5' ACATGCTCACTATAGACAA 3' (SEQ ID NO:8) |  |  |  |  |  | greatly inhibited tumor growth | greatly reduced
